Assay: log P determination (acidic)
Format: physicochemical

## CNC(=S)N1CCO/C1=N\[C@@H](C)c1ccccc1F [compound 3, (2Z)-2-{[(1S)-1-(2-fluorophenyl)ethyl]imino}-N-methyl-1,3-oxazolidine-3-carbothioamide]
  logP: 3.18

— patent publication EP1977645A1, “Insecticidal derivates of substituted phenylalkylamines” (priority 2007, dated 2008)
